Measured values taken from US9725449B2, “Tricyclic compounds as anticancer agents” (BRISTOL-MYERS SQUIBB COMPANY, priority 2015, dated 2017).
pIC50: −log10 of the molar value.

Each compound was assayed against BRD4 (Homo sapiens, UniProt O60885) (assay: Time resolved fluorescence resonance energy transfer (TR-FRET) binding assay, bromodomain BRD4). Conditions: one of the FRET assays described; read-out: FRET BRD4 IC50.

Compound | pIC50
[2H]C([2H])([2H])c1nnn(C)c1-c1cnc2c3c(Cl)ncc(F)c3n([C@H](c3ccccc3)C3CCOCC3)c2c1 [Example 280, 13-Chloro-10-fluoro-5-[4-(^2H3)methyl-1-methyl-1H-1,2,3-triazol-5-yl]-8-[(S)-oxan-4-yl(phenyl)methyl]-3,8,12-triazatricyclo[7.4.0.0^2,^7]trideca-1(13),2(7),3,5,9,11-hexaene] | > 8.00
COc1cc2c(c(C)n1)c1ncc(-c3c(C)nnn3C)cc1n2[C@H](c1ccccc1)C1CCOCC1 [Example 283, 5-(Dimethyl-1H-1,2,3-triazol-5-yl)-11-methoxy-13-methyl-8-[(S)-oxan-4-yl(phenyl)methyl]-3,8,12-triazatricyclo[7.4.0.0^2,^7]trideca-1(9),2(7),3,5,10,12-hexaene] | > 9.00
[2H]C([2H])([2H])c1nnn(C)c1-c1cnc2c3cnc(C(C)(C)O)cc3n([C@H](c3ccccc3)C3CCOCC3)c2c1 [Example 284, 2-{5-[4-(^2H3)Methyl-1-methyl-1H-1,2,3-triazol-5-yl]-8-[(S)-oxan-4-yl(phenyl)methyl]-3,8,12-triazatricyclo[7.4.0.0^2,^7]trideca-1(9),2(7),3,5,10,12-hexaen-11-yl}propan-2-ol] | > 9.00
Cc1nnn(C)c1-c1cnc2c3cnc(C(C)(C)O)cc3n([C@H](c3ccccc3)C3CCOCC3)c2c1 [Example 285, 2-[5-(Dimethyl-1H-1,2,3-triazol-5-yl)-8-[(S)-oxan-4-yl(phenyl)methyl]-3,8,12-triazatricyclo[7.4.0.0^2,^7]trideca-1(9),2(7),3,5,10,12-hexaen-11-yl]propan-2-ol] | > 9.00
[2H]C([2H])([2H])c1nnn(C)c1-c1cnc2c3cncc(S(C)(=O)=O)c3n([C@H](c3ccccc3)C3CCOCC3)c2c1 [Example 286, 10-Methanesulfonyl-5-[4-(^2H3)methyl-1-methyl-1H-1,2,3-triazol-5-yl]-8-[(S)-oxan-4-yl(phenyl)methyl]-3,8,12-triazatricyclo[7.4.0.0^2,^7]trideca-1(13),2(7),3,5,9,11-hexaene] | > 8.00
[2H]C([2H])([2H])c1nnn(C)c1-c1cnc2c3cnc(OC)cc3n([C@H](c3ccccc3)C3CCOCC3)c2c1 [Example 287, 11-Methoxy-5-[4-(^2H3)methyl-1-methyl-1H-1,2,3-triazol-5-yl]-8-[(S)-oxan-4-yl(phenyl)methyl]-3,8,12-triazatricyclo[7.4.0.0^2,^7]trideca-1(9),2(7),3,5,10,12-hexaene] | > 9.00
[2H]C([2H])([2H])c1nnn(C)c1-c1cnc2c3cnc(OCC4CC4)cc3n([C@H](c3ccccc3)C3CCOCC3)c2c1 [Example 288, 11-(Cyclopropylmethoxy)-5-[4-(^2H3)methyl-1-methyl-1H-1,2,3-triazol-5-yl]-8-[(S)-oxan-4-yl(phenyl)methyl]-3,8,12-triazatricyclo[7.4.0.0^2,^7]trideca-1(9),2(7),3,5,10,12-hexaene] | > 9.00
Cc1nnn(C)c1-c1cnc2c3cncc(S(C)(=O)=O)c3n(C(c3ccccc3)C3CCC(F)(F)CC3)c2c1 (stereo not drawn) [Example 289, 8-[(4,4-Difluorocyclohexyl)(phenyl)methyl]-5-(dimethyl-1H-1,2,3-triazol-5-yl)-10-methanesulfonyl-3,8,12-triazatricyclo[7.4.0.0^2,^7]trideca-1(13),2(7),3,5,9,11-hexaene] | > 5.82
Cc1nnn(C)c1-c1cnc2c3cncc(S(C)(=O)=O)c3n(C(c3ccccc3)C3CCC(F)(F)CC3)c2c1 (stereo not drawn) [Example 290, 8-[(4,4-Difluorocyclohexyl)(phenyl)methyl]-5-(dimethyl-1H-1,2,3-triazol-5-yl)-10-methanesulfonyl-3,8,12-triazatricyclo[7.4.0.0^2,^7]trideca-1(13),2(7),3,5,9,11-hexaene] | > 9.00
[2H]C([2H])([2H])c1nnn(C)c1-c1cnc2c3cncc(C(C)(C)O)c3n([C@H](c3ccccc3)C3CCOCC3)c2c1 [Example 291, 2-{5-[4-(^2H3)Methyl-1-methyl-1H-1,2,3-triazol-5-yl]-8-[(S)-oxan-4-yl(phenyl)methyl]-3,8,12-triazatricyclo[7.4.0.0^2,^7]trideca-1(9),2,4,6,10,12-hexaen-10-yl}propan-2-ol] | > 9.00
[2H]C([2H])([2H])c1nnn(C)c1-c1cnc2c3c(F)c(C(C)(C)O)ncc3n([C@H](c3ccccc3)C3CCOCC3)c2c1 [Example 292, 2-{13-Fluoro-5-[4-(^2H3)methyl-1-methyl-1H-1,2,3-triazol-5-yl]-8-[(S)-oxan-4-yl(phenyl)methyl]-3,8,11-triazatricyclo[7.4.0.0^2,^7]trideca-1(13),2(7),3,5,9,11-hexaen-12-yl}propan-2-ol] | > 8.00
Cc1nnn(C)c1-c1cnc2c3c(Cl)nc(C(C)(C)O)cc3n([C@H](c3ccccc3)C3CCOCC3)c2c1 [Example 294, 2-{13-chloro-5-[4-(^2H3)methyl-1-methyl-1H-1,2,3-triazol-5-yl]-8-[(S)-oxan-4-yl(phenyl)methyl]-3,8,12-triazatricyclo[7.4.0.0^2,^7]trideca-1(13),2(7),3,5,9,11-hexaen-11-yl}propan-2-ol] | > 8.00
[2H]C([2H])([2H])c1nnn(C)c1-c1cnc2c3ccc(NCCc4nnn[nH]4)nc3n([C@H](c3ccccc3)C3CCOCC3)c2c1 [Example 295, 5-[4-(^2H3)Methyl-1-methyl-1H-1,2,3-triazol-5-yl]-8-[(S)-oxan-4-yl(phenyl)methyl]-N-[2-(1H-1,2,3,4-tetrazol-5-yl)ethyl]-3,8,10-triazatricyclo[7.4.0.0^2,^7]trideca-1(9),2(7),3,5,10,12-hexaen-11-amine] | > 9.00
[2H]C([2H])([2H])c1nnn(C)c1-c1cnc2c3c(Cl)cnc(Cl)c3n([C@H](c3ccccc3)C3CCOCC3)c2c1 [Example 296, 10,13-Dichloro-5-[4-(^2H3)methyl-1-methyl-1H-1,2,3-triazol-5-yl]-8-[(S)-oxan-4-yl(phenyl)methyl]-3,8,11-triazatricyclo[7.4.0.0^2,^7]trideca-1(9),2(7),3,5,10,12-hexaene] | > 9.00
[2H]C([2H])([2H])c1nnn(C)c1-c1cnc2c3c(C(C)=O)cncc3n([C@H](c3ccccc3)C3CCOCC3)c2c1 [Example 297, 1-{5-[4-(^2H3)Methyl-1-methyl-1H-1,2,3-triazol-5-yl]-8-[(S)-oxan-4-yl(phenyl)methyl]-3,8,11-triazatricyclo[7.4.0.0^2,^7]trideca-1(9),2(7),3,5,10,12-hexaen-13-yl}ethan-1-one] | > 8.00
[2H]C([2H])([2H])c1nnn(C)c1-c1cnc2c3c(C(C)(C)O)cncc3n([C@H](c3ccccc3)C3CCOCC3)c2c1 [Example 298, 2-{5-[4-(^2H3)Methyl-1-methyl-1H-1,2,3-triazol-5-yl]-8-[(S)-oxan-4-yl(phenyl)methyl]-3,8,11-triazatricyclo[7.4.0.0^2,^7]trideca-1(9),2(7),3,5,10,12-hexaen-13-yl}propan-2-ol] | > 8.00
[2H]C([2H])([2H])c1nnn(C)c1-c1cnc2c3ccncc3n([C@H](c3ccccc3)C3CCOCC3)c2c1 [Example 299, 5-[4-(^2H3)Methyl-1-methyl-1H-1,2,3-triazol-5-yl]-8-[(S)-oxan-4-yl(phenyl)methyl]-3,8,11-triazatricyclo[7.4.0.0^2,^7]trideca-1(9),2(7),3,5,10,12-hexaene] | > 9.00
[2H]C([2H])([2H])c1nnn(C)c1-c1cnc2c3c(OC)cncc3n([C@H](c3ccccc3)C3CCOCC3)c2c1 [Example 300, 13-Methoxy-5-[4-(^2H3)methyl-1-methyl-1H-1,2,3-triazol-5-yl]-8-[(S)-oxan-4-yl(phenyl)methyl]-3,8,11-triazatricyclo[7.4.0.0^2,^7]trideca-1(9),2(7),3,5,10,12-hexaene] | > 9.00
[2H]C([2H])([2H])c1nnn(C)c1-c1cnc2c3c(OCC(F)(F)F)cncc3n([C@H](c3ccccc3)C3CCOCC3)c2c1 [Example 301, 5-[4-(^2H3)Methyl-1-methyl-1H-1,2,3-triazol-5-yl]-8-[(S)-oxan-4-yl(phenyl)methyl]-13-(2,2,2-trifluoroethoxy)-3,8,11-triazatricyclo[7.4.0.0^2,^7]trideca-1(9),2(7),3,5,10,12-hexaene] | > 9.00
[2H]C([2H])([2H])c1nnn(C)c1-c1cnc2c3c(NCC(F)(F)F)cncc3n([C@H](c3ccccc3)C3CCOCC3)c2c1 [Example 302, 5-[4-(^2H3)Methyl-1-methyl-1H-1,2,3-triazol-5-yl]-8-[(S)-oxan-4-yl(phenyl)methyl]-N-(2,2,2-trifluoroethyl)-3,8,11-triazatricyclo[7.4.0.0^2,^7]trideca-1(9),2(7),3,5,10,12-hexaen-13-amine] | > 9.00
[2H]C([2H])([2H])c1nnn(C)c1-c1cnc2c3c(NCC(F)(F)F)cncc3n(C(c3ncccc3F)C3CCOCC3)c2c1 (stereo not drawn) [Example 303, 8-[(3-Fluoropyridin-2-yl)(oxan-4-yl)methyl]-5-[4-(^2H3)methyl-1-methyl-1H-1,2,3-triazol-5-yl]-N-(2,2,2-trifluoroethyl)-3,8,11-triazatricyclo[7.4.0.0^2,^7]trideca-1(9),2(7),3,5,10,12-hexaen-13-amine] | > 8.00
[2H]C([2H])([2H])c1nnn(C)c1-c1cnc2c3c(NCC(F)(F)F)cncc3n(C(c3ncccc3F)C3CCOCC3)c2c1 (stereo not drawn) [Example 304, 8-[(3-Fluoropyridin-2-yl)(oxan-4-yl)methyl]-5-[4-(^2H3)methyl-1-methyl-1H-1,2,3-triazol-5-yl]-N-(2,2,2-trifluoroethyl)-3,8,11-triazatricyclo[7.4.0.0^2,^7]trideca-1(9),2(7),3,5,10,12-hexaen-13-amine] | > 8.00
[2H]C([2H])([2H])c1nnn(C)c1-c1cnc2c3c(OC)nc(Cl)cc3n([C@H](c3ncccc3F)C3CCOCC3)c2c1 [Example 305, 11-Chloro-8-[(S)-(3-fluoropyridin-2-yl)(oxan-4-yl)methyl]-13-methoxy-5-[4-(^2H3)methyl-1-methyl-1H-1,2,3-triazol-5-yl]-3,8,12-triazatricyclo[7.4.0.0^2,^7]trideca-1(9),2(7),3,5,10,12-hexaene] | > 8.00
COc1nc(Cl)cc2c1c1ncc(-c3c(C)nnn3C)cc1n2C(c1ncccc1O)C1CCOCC1 (stereo not drawn) [Example 306, 2-({11-Chloro-13-methoxy-5-[4-(^2H3)methyl-1-methyl-1H-1,2,3-triazol-5-yl]-3,8,12-triazatricyclo[7.4.0.0^2,^7]trideca-1(9),2(7),3,5,10,12-hexaen-8-yl}(oxan-4-yl)methyl)pyridin-3-ol] | > 8.00
